Results: US20260305610A1, “TRIAZOLE COMPOUND, AND PREPARATION METHOD THEREFOR, HERBICIDAL COMPOSITION AND USE THEREOF” (QINGDAO KINGAGROOT CHEMICAL COMPOUND CO., LTD., priority 2023, published 2026)

Assays:
[1] = tested on: monocotyledonous and dicotyledonous weeds; experiment: Pre-emergence test experiment (weeds); type: in vivo; set-up: key: 9: completely dead; 8: growth control rate is greater than or equal to 90% and less than 100%; 7: growth control rate is greater than or equal to 80% and less than 90%; 6: growth control rate is greater than or equal to 70% and less than 80%; growth control rate is greater than or equal to 50% and less than 70%; 4: growth control rate is greater than or equal to 30% and less than 50%; growth control rate is greater than or equal to 20% and less than 30%; growth control rate is greater than or equal to 10% and less than 20%; growth control rate is less than 10%; 0: no effect; settings: 30 g a.i./ha
major crops = experiment: Pre-emergence test experiment (crops); type: in vivo; set-up: key: 9: completely dead; 8: growth control rate is greater than or equal to 90% and less than 100%; 7: growth control rate is greater than or equal to 80% and less than 90%; 6: growth control rate is greater than or equal to 70% and less than 80%; growth control rate is greater than or equal to 50% and less than 70%; 4: growth control rate is greater than or equal to 30% and less than 50%; growth control rate is greater than or equal to 20% and less than 30%; growth control rate is greater than or equal to 10% and less than 20%; growth control rate is less than 10%; 0: no effect; settings: 30 g a.i./ha

For `CCc1ccc(-n2cnc(C(F)(F)F)n2)nc1Oc1cccc(OC(F)(F)F)c1` [Compound 71], the “Pre-emergence activity level (growth control rate) on Amaranthus retroflexus” value [1] was 9, the “Pre-emergence activity level (growth control rate) on Descurainia sophia” value [1] was 9 and the “Pre-emergence activity level (growth control rate) on Digitaria sanguinalis” value [1] was 9. For the same compound, the “Pre-emergence activity level (growth control rate) on Setaria viridis” value [1] was 9, the “Pre-emergence activity level (growth control rate) on Solanum nigrum” value [1] was 9 and the “Pre-emergence activity level (growth control rate) on Veronica” value (“Pre-emergence activity level … on Veronica” below) [1] was 9. For the same compound, the “Pre-emergence plant damage level (growth control rate) on Corn” value (shortened to “Pre-emergence plant damage level … on Corn”) (major crops) was 0, the “Pre-emergence plant damage level (growth control rate) on Cotton” value (“Pre-emergence plant damage level … on Cotton” below) (major crops) was 0 and the “Pre-emergence plant damage level (growth control rate) on Soybean” value (“Pre-emergence plant damage level … on Soybean” below) (major crops) was 0.
In the case of `Cc1cc(Oc2cncc(C(F)(F)F)c2)nc(-n2cnc(C(F)(F)F)n2)c1` [Compound 6], the “Pre-emergence activity level (growth control rate) on Amaranthus retroflexus” value [1] is reported as 9, the “Pre-emergence activity level (growth control rate) on Descurainia sophia” value [1] is reported as 9 and the “Pre-emergence activity level (growth control rate) on Digitaria sanguinalis” value [1] is reported as 9. For the same compound, the “Pre-emergence activity level (growth control rate) on Setaria viridis” value [1] was 9, the “Pre-emergence activity level (growth control rate) on Solanum nigrum” value [1] was 9 and the “Pre-emergence activity level … on Veronica” value [1] was 9. For the same compound, the “Pre-emergence plant damage level … on Corn” value (major crops) was 0, the “Pre-emergence plant damage level … on Cotton” value (major crops) was 0 and the “Pre-emergence plant damage level … on Soybean” value (major crops) was 0.
For `FC(F)(F)c1cccc(Oc2nc(-n3cnc(C(F)(F)F)n3)ccc2Cl)c1` [Compound 7], the “Pre-emergence activity level (growth control rate) on Amaranthus retroflexus” value [1] was 9, the “Pre-emergence activity level (growth control rate) on Descurainia sophia” value [1] was 9 and the “Pre-emergence activity level (growth control rate) on Digitaria sanguinalis” value [1] was 8 (growth control rate is greater than or equal to 90% and less than 100%). The “Pre-emergence activity level (growth control rate) on Setaria viridis” value [1] was 9, the “Pre-emergence activity level … on Veronica” value [1] was 9 and the “Pre-emergence plant damage level … on Corn” value (major crops) was 0. The “Pre-emergence plant damage level … on Cotton” value (major crops) was 0 and the “Pre-emergence plant damage level … on Soybean” value (major crops) was 0.
For `Cc1ccc(-n2cnc(C(F)F)n2)nc1Oc1cccc(C(F)F)c1` [Compound 84], the “Pre-emergence activity level (growth control rate) on Amaranthus retroflexus” value [1] was 9, the “Pre-emergence activity level (growth control rate) on Descurainia sophia” value [1] was 9 and the “Pre-emergence activity level (growth control rate) on Digitaria sanguinalis” value [1] was 9. For the same compound, the “Pre-emergence activity level (growth control rate) on Setaria viridis” value [1] was 9, the “Pre-emergence activity level (growth control rate) on Solanum nigrum” value [1] was 9 and the “Pre-emergence activity level … on Veronica” value [1] was 9. The “Pre-emergence plant damage level … on Corn” value (major crops) was 0, the “Pre-emergence plant damage level … on Cotton” value (major crops) was 0 and the “Pre-emergence plant damage level … on Soybean” value (major crops) was 0.
For `COCc1ccc(-n2cnc(C(F)(F)C(F)(F)F)n2)nc1Oc1cncc(C(F)(F)F)c1` [Compound 140], the “Pre-emergence activity level (growth control rate) on Descurainia sophia” value [1] was 9, the “Pre-emergence activity level (growth control rate) on Digitaria sanguinalis” value [1] was 8 (growth control rate is greater than or equal to 90% and less than 100%) and the “Pre-emergence activity level (growth control rate) on Setaria viridis” value [1] was 9. For the same compound, the “Pre-emergence activity level (growth control rate) on Solanum nigrum” value [1] was 9, the “Pre-emergence activity level … on Veronica” value [1] was 9 and the “Pre-emergence plant damage level … on Corn” value (major crops) was 0. For the same compound, the “Pre-emergence plant damage level … on Cotton” value (major crops) was 0 and the “Pre-emergence plant damage level … on Soybean” value (major crops) was 0.
For `FC(F)(F)c1cccc(Oc2nc(-n3cnc(C(F)(F)F)n3)ccc2C2CC2)c1` [Compound 22], the “Pre-emergence activity level (growth control rate) on Amaranthus retroflexus” value [1] was 9, the “Pre-emergence activity level (growth control rate) on Descurainia sophia” value [1] was 9 and the “Pre-emergence activity level (growth control rate) on Digitaria sanguinalis” value [1] was 7 (growth control rate is greater than or equal to 80% and less than 90%). For the same compound, the “Pre-emergence activity level (growth control rate) on Setaria viridis” value [1] was 8 (growth control rate is greater than or equal to 90% and less than 100%), the “Pre-emergence activity level (growth control rate) on Solanum nigrum” value [1] was 7 (growth control rate is greater than or equal to 80% and less than 90%) and the “Pre-emergence activity level … on Veronica” value [1] was 9. The “Pre-emergence plant damage level … on Corn” value (major crops) was 0, the “Pre-emergence plant damage level … on Cotton” value (major crops) was 0 and the “Pre-emergence plant damage level … on Soybean” value (major crops) was 0.
With `CCCc1ccc(-n2cnc(C(F)(F)F)n2)nc1Oc1cccc(C(F)(F)F)c1` [Compound 21] the “Pre-emergence activity level (growth control rate) on Amaranthus retroflexus” value [1] was 9, the “Pre-emergence activity level (growth control rate) on Descurainia sophia” value [1] was 9 and the “Pre-emergence activity level (growth control rate) on Digitaria sanguinalis” value [1] was 8 (growth control rate is greater than or equal to 90% and less than 100%). For the same compound, the “Pre-emergence activity level (growth control rate) on Setaria viridis” value [1] was 8 (growth control rate is greater than or equal to 90% and less than 100%), the “Pre-emergence activity level (growth control rate) on Solanum nigrum” value [1] was 7 (growth control rate is greater than or equal to 80% and less than 90%) and the “Pre-emergence activity level … on Veronica” value [1] was 9. The “Pre-emergence plant damage level … on Corn” value (major crops) was 0, the “Pre-emergence plant damage level … on Cotton” value (major crops) was 0 and the “Pre-emergence plant damage level … on Soybean” value (major crops) was 0.
`CCc1ccc(-n2cnc(C(F)(F)F)n2)nc1Oc1cccc(C(C)(F)F)c1` [Compound 69] was tested, and the “Pre-emergence activity level (growth control rate) on Amaranthus retroflexus” value [1] was 9, the “Pre-emergence activity level (growth control rate) on Descurainia sophia” value [1] was 9 and the “Pre-emergence activity level (growth control rate) on Digitaria sanguinalis” value [1] was 9. For the same compound, the “Pre-emergence activity level (growth control rate) on Setaria viridis” value [1] was 9, the “Pre-emergence activity level (growth control rate) on Solanum nigrum” value [1] was 9 and the “Pre-emergence activity level … on Veronica” value [1] was 9. For the same compound, the “Pre-emergence plant damage level … on Corn” value (major crops) was 0, the “Pre-emergence plant damage level … on Cotton” value (major crops) was 0 and the “Pre-emergence plant damage level … on Soybean” value (major crops) was 0.
For `CCc1ccc(-n2cnc(C(F)(F)F)n2)nc1Oc1cccc(C(F)F)c1` [Compound 137], the “Pre-emergence activity level (growth control rate) on Amaranthus retroflexus” value [1] was 9, the “Pre-emergence activity level (growth control rate) on Descurainia sophia” value [1] was 9 and the “Pre-emergence activity level (growth control rate) on Digitaria sanguinalis” value [1] was 8 (growth control rate is greater than or equal to 90% and less than 100%). The “Pre-emergence activity level (growth control rate) on Setaria viridis” value [1] was 9, the “Pre-emergence activity level (growth control rate) on Solanum nigrum” value [1] was 9 and the “Pre-emergence activity level … on Veronica” value [1] was 9. For the same compound, the “Pre-emergence plant damage level … on Corn” value (major crops) was 0, the “Pre-emergence plant damage level … on Cotton” value (major crops) was 0 and the “Pre-emergence plant damage level … on Soybean” value (major crops) was 0.
In the case of `Cc1ccc(-n2cnc(C(F)(F)C(F)(F)F)n2)nc1Oc1cccc(OC(F)(F)F)c1` [Compound 65], the “Pre-emergence activity level (growth control rate) on Descurainia sophia” value [1] is reported as 9, the “Pre-emergence activity level (growth control rate) on Digitaria sanguinalis” value [1] is reported as 9 and the “Pre-emergence activity level (growth control rate) on Setaria viridis” value [1] is reported as 9. For the same compound, the “Pre-emergence plant damage level … on Corn” value (major crops) was 0, the “Pre-emergence plant damage level … on Cotton” value (major crops) was 0 and the “Pre-emergence plant damage level … on Soybean” value (major crops) was 0.
For `COc1cc(Oc2ccc(F)c(C(F)(F)F)c2)nc(-n2cnc(C(F)(F)F)n2)c1` [Compound 76], the “Pre-emergence activity level (growth control rate) on Amaranthus retroflexus” value [1] was 9, the “Pre-emergence activity level (growth control rate) on Descurainia sophia” value [1] was 9 and the “Pre-emergence activity level (growth control rate) on Digitaria sanguinalis” value [1] was 9. The “Pre-emergence activity level (growth control rate) on Setaria viridis” value [1] was 8 (growth control rate is greater than or equal to 90% and less than 100%), the “Pre-emergence activity level (growth control rate) on Solanum nigrum” value [1] was 9 and the “Pre-emergence activity level … on Veronica” value [1] was 9. For the same compound, the “Pre-emergence plant damage level … on Corn” value (major crops) was 0, the “Pre-emergence plant damage level … on Cotton” value (major crops) was 0 and the “Pre-emergence plant damage level … on Soybean” value (major crops) was 0.
For `COc1cc(Oc2cccc(OC(F)(F)F)c2)nc(-n2cnc(C(F)(F)F)n2)c1` [Compound 78], the “Pre-emergence activity level (growth control rate) on Amaranthus retroflexus” value [1] was 9, the “Pre-emergence activity level (growth control rate) on Descurainia sophia” value [1] was 9 and the “Pre-emergence activity level (growth control rate) on Digitaria sanguinalis” value [1] was 9. The “Pre-emergence activity level (growth control rate) on Setaria viridis” value [1] was 8 (growth control rate is greater than or equal to 90% and less than 100%), the “Pre-emergence activity level (growth control rate) on Solanum nigrum” value [1] was 8 (growth control rate is greater than or equal to 90% and less than 100%) and the “Pre-emergence activity level … on Veronica” value [1] was 9. The “Pre-emergence plant damage level … on Corn” value (major crops) was 0, the “Pre-emergence plant damage level … on Cotton” value (major crops) was 0 and the “Pre-emergence plant damage level … on Soybean” value (major crops) was 0.
With `Cc1ccc(-n2cnc(C(F)(F)F)n2)nc1Oc1ccc(F)c(C(F)(F)F)c1` [Compound 10] the “Pre-emergence activity level (growth control rate) on Amaranthus retroflexus” value [1] was 9, the “Pre-emergence activity level (growth control rate) on Descurainia sophia” value [1] was 9 and the “Pre-emergence activity level (growth control rate) on Digitaria sanguinalis” value [1] was 9. The “Pre-emergence activity level (growth control rate) on Setaria viridis” value [1] was 9, the “Pre-emergence activity level (growth control rate) on Solanum nigrum” value [1] was 9 and the “Pre-emergence activity level … on Veronica” value [1] was 9. The “Pre-emergence plant damage level … on Corn” value (major crops) was 0, the “Pre-emergence plant damage level … on Cotton” value (major crops) was 0 and the “Pre-emergence plant damage level … on Soybean” value (major crops) was 0.
`COc1cc(Oc2cccc(C(F)(F)F)c2)nc(-n2cnc(C(F)(F)F)n2)c1` [Compound 3] was tested, and the “Pre-emergence activity level (growth control rate) on Amaranthus retroflexus” value [1] was 9, the “Pre-emergence activity level (growth control rate) on Descurainia sophia” value [1] was 9 and the “Pre-emergence activity level (growth control rate) on Digitaria sanguinalis” value [1] was 8 (growth control rate is greater than or equal to 90% and less than 100%). For the same compound, the “Pre-emergence activity level (growth control rate) on Setaria viridis” value [1] was 9, the “Pre-emergence activity level (growth control rate) on Solanum nigrum” value [1] was 9 and the “Pre-emergence activity level … on Veronica” value [1] was 9. For the same compound, the “Pre-emergence plant damage level … on Corn” value (major crops) was 0, the “Pre-emergence plant damage level … on Cotton” value (major crops) was 0 and the “Pre-emergence plant damage level … on Soybean” value (major crops) was 0.
With `CCc1ccc(-n2cnc(C(F)(F)C(F)(F)F)n2)nc1Oc1cccc(C(F)(F)F)c1` [Compound 19] the “Pre-emergence activity level (growth control rate) on Amaranthus retroflexus” value [1] was 9, the “Pre-emergence activity level (growth control rate) on Descurainia sophia” value [1] was 9 and the “Pre-emergence activity level (growth control rate) on Digitaria sanguinalis” value [1] was 8 (growth control rate is greater than or equal to 90% and less than 100%). For the same compound, the “Pre-emergence activity level (growth control rate) on Setaria viridis” value [1] was 8 (growth control rate is greater than or equal to 90% and less than 100%), the “Pre-emergence activity level (growth control rate) on Solanum nigrum” value [1] was 8 (growth control rate is greater than or equal to 90% and less than 100%) and the “Pre-emergence activity level … on Veronica” value [1] was 9. The “Pre-emergence plant damage level … on Corn” value (major crops) was 0, the “Pre-emergence plant damage level … on Cotton” value (major crops) was 0 and the “Pre-emergence plant damage level … on Soybean” value (major crops) was 0.
